From ChEMBL document CHEMBL4725389, “Novel Blocker of Onco SK3 Channels Derived from Scorpion Toxin Tamapin and Active against Migration of Cancer Cells” (ACS Med Chem Lett, 2020)
The source made the active and inactive calls. The rule behind the calls is not given here. Positions of bridges follow the written chain, without caps; N, C: chain ends. Residues, ends and D or L forms follow the SMILES beside them.

Tests used:
[1] = target: Small conductance calcium-activated potassium channel protein 3 (Homo sapiens, UniProt Q9UGI6); assay: Inhibition of recombinant human SK3 expressed in HEK293T cells at 10 nM and holding potential at 0 mV and ramp voltage from -100 to 100 mV by whole cell patch clamp method relative to control; type: cell-based; settings: HEK-293T
[2] = target: Small conductance calcium-activated potassium channel protein 2 (Rattus norvegicus) (UniProt P70604); assay: Inhibition of recombinant rat SK2 expressed in HEK293 cells at 10 nM and holding potential at 0 mV and ramp voltage from -100 to 100 mV by whole cell patch clamp method relative to control; type: cell-based
Sequence of Small conductance calcium-activated potassium channel protein 2 (Rattus norvegicus) (P70604 whole entry): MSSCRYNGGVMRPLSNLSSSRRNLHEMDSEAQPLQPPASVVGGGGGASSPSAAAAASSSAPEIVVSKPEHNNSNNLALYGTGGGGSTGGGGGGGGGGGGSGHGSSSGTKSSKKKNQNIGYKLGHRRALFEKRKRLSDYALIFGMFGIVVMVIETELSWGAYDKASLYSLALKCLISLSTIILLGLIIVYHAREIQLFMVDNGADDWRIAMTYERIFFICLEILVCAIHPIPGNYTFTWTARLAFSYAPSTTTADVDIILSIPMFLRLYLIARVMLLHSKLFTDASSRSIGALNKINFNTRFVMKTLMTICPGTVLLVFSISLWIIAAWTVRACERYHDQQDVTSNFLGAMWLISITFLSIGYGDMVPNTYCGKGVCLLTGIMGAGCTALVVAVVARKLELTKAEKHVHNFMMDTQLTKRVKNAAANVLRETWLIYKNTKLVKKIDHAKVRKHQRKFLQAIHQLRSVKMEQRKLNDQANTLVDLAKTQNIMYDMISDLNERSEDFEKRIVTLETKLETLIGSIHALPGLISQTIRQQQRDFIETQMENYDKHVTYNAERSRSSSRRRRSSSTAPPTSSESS

Sequence of Small conductance calcium-activated potassium channel protein 3 (Q9UGI6 whole entry): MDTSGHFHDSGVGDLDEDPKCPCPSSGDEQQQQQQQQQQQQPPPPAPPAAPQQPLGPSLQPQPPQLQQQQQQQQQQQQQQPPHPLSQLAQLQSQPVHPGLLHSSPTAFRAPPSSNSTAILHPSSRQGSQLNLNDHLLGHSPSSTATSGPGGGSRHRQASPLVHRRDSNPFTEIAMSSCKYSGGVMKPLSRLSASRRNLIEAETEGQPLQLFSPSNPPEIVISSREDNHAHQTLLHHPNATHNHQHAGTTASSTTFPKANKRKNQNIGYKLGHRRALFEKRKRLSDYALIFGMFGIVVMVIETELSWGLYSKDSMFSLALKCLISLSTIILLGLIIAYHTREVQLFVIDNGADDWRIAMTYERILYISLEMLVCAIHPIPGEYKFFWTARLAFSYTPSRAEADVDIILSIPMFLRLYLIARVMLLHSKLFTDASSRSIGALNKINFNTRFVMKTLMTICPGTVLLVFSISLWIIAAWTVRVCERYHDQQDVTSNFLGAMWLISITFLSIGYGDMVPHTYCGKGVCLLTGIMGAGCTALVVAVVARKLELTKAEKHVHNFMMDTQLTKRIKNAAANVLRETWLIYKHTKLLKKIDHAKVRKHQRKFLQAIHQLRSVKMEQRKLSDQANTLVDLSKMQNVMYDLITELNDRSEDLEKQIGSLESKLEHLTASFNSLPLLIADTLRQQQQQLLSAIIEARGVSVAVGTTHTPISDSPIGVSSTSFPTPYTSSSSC

Row | inhibition [1] | inhibition [2] | Structure (SMILES)
1 | inactive | > 85% | CC[C@H](C)[C@@H]1NC(=O)[C@@H]2CSSC[C@H](NC(=O)[C@H](Cc3ccccc3)NC(=O)[C@H](C)N)C(=O)N[C@@H](CC(N)=O)C(=O)N[C@@H](CC(C)C)C(=O)N[C@@H](CCCNC(=N)N)C(=O)N[C@@H](CCCNC(=N)N)C(=O)N[C@H]3CSSC[C@H](NC(=O)[C@H](CCC(=O)O)NC(=O)[C@H](CCC(=O)O)NC(=O)CNC1=O)C(=O)N[C@@H](CCCCN)C(=O)N[C@H](C(=O)N[C@H](C(=O)N1CCC[C@H]1C(=O)N[C@@H](Cc1ccc(O)cc1)C(=O)O)C(C)C)CSSC[C@H](NC(=O)[C@H](CO)NC(=O)[C@H](CC(C)C)NC(=O)[C@H](CCC(=O)O)NC3=O)C(=O)N[C@@H](CCCNC(=N)N)C(=O)N[C@@H](CO)C(=O)N[C@@H](CC(C)C)C(=O)NCC(=O)N[C@@H](CC(C)C)C(=O)N[C@@H](CC(C)C)C(=O)NCC(=O)N[C@@H](C)C(=O)N2 (H-AFCNLRRCELSCRSLGLLGACIGEECKCVPY-OH; disulfide 3-21, 8-26, 12-28)
2 | < 39% | 40% | CC[C@H](C)[C@@H]1NC(=O)[C@@H]2CSSC[C@H](NC(=O)[C@H](Cc3ccccc3)NC(=O)[C@H](C)N)C(=O)N[C@@H](CC(N)=O)C(=O)N[C@@H](CC(C)C)C(=O)N[C@@H](CCCNC(=N)N)C(=O)N[C@@H](CCCNC(=N)N)C(=O)N[C@H]3CSSC[C@H](NC(=O)[C@H](CCC(=O)O)NC(=O)[C@H](CCC(=O)O)NC(=O)CNC1=O)C(=O)N[C@@H](CCCCN)C(=O)N[C@H](C(=O)N[C@H](C(=O)N1CCC[C@H]1C(=O)N[C@@H](C)C(=O)O)C(C)C)CSSC[C@H](NC(=O)[C@H](CO)NC(=O)[C@H](CC(C)C)NC(=O)[C@H](CCC(=O)O)NC3=O)C(=O)N[C@@H](CCCNC(=N)N)C(=O)N[C@@H](CO)C(=O)N[C@@H](CC(C)C)C(=O)NCC(=O)N[C@@H](CC(C)C)C(=O)N[C@@H](CC(C)C)C(=O)NCC(=O)N[C@@H](CCCCN)C(=O)N2 (H-AFCNLRRCELSCRSLGLLGKCIGEECKCVPA-OH; disulfide 3-21, 8-26, 12-28)
3 | 40% | < 39% | CC[C@H](C)[C@@H]1NC(=O)[C@@H]2CSSC[C@H](NC(=O)[C@H](Cc3ccccc3)NC(=O)[C@H](C)N)C(=O)N[C@@H](CC(N)=O)C(=O)N[C@@H](CC(C)C)C(=O)N[C@@H](CCCNC(=N)N)C(=O)N[C@@H](CCCNC(=N)N)C(=O)N[C@H]3CSSC[C@H](NC(=O)[C@H](CCC(=O)O)NC(=O)[C@H](CCC(=O)O)NC(=O)CNC1=O)C(=O)N[C@@H](CCC(=O)O)C(=O)N[C@H](C(=O)N[C@H](C(=O)N1CCC[C@H]1C(=O)N[C@@H](Cc1ccc(O)cc1)C(=O)O)C(C)C)CSSC[C@H](NC(=O)[C@H](CO)NC(=O)[C@H](CC(C)C)NC(=O)[C@H](CCC(=O)O)NC3=O)C(=O)N[C@@H](CCCNC(=N)N)C(=O)N[C@@H](CO)C(=O)N[C@@H](CC(C)C)C(=O)NCC(=O)N[C@@H](CC(C)C)C(=O)N[C@@H](CC(C)C)C(=O)NCC(=O)N[C@@H](CCCCN)C(=O)N2 (H-AFCNLRRCELSCRSLGLLGKCIGEECECVPY-OH; disulfide 3-21, 8-26, 12-28)
4 | 40% | < 39% | CC[C@H](C)[C@@H]1NC(=O)[C@@H]2CSSC[C@H](NC(=O)[C@H](Cc3ccccc3)NC(=O)[C@H](C)N)C(=O)N[C@@H](CC(N)=O)C(=O)N[C@@H](CC(C)C)C(=O)N[C@@H](CCCNC(=N)N)C(=O)N[C@@H](CCCNC(=N)N)C(=O)N[C@H]3CSSC[C@H](NC(=O)[C@H](C)NC(=O)[C@H](CCC(=O)O)NC(=O)CNC1=O)C(=O)N[C@@H](CCCCN)C(=O)N[C@H](C(=O)N[C@H](C(=O)N1CCC[C@H]1C(=O)N[C@@H](Cc1ccc(O)cc1)C(=O)O)C(C)C)CSSC[C@H](NC(=O)[C@H](CO)NC(=O)[C@H](CC(C)C)NC(=O)[C@H](CCC(=O)O)NC3=O)C(=O)N[C@@H](CCCNC(=N)N)C(=O)N[C@@H](CO)C(=O)N[C@@H](CC(C)C)C(=O)NCC(=O)N[C@@H](CC(C)C)C(=O)N[C@@H](CC(C)C)C(=O)NCC(=O)N[C@@H](CCCCN)C(=O)N2 (H-AFCNLRRCELSCRSLGLLGKCIGEACKCVPY-OH; disulfide 3-21, 8-26, 12-28)
